Active and inactive are the calls of the source.
Columns and labels:
Vero [1] = assay: host cell cytotoxicity of antiviral hits, dose response, cytotoxicity control for West Nile virus antiviral project, secondary assay (AID 1650); assay type: functional; details: Chlorocebus sabaeus
[2] = Luminescence Cell-Based Dose Retest to Confirm Inhibitors of Cancer Stem Cells. [Related pubchem assays (depositor defined):AID2717, AID2721]; assay type: functional; details: Homo sapiens
HEK293 = assay: inhibitors of LMP1-driven NF-kB reporter, dose response, cell-based, HEK293, luciferase, cherry-pick (AID 588343); assay type: functional; details: Homo sapiens
[3] = biological target: T1, Latent membrane protein 1 (Human herpesvirus 4 (strain B95-8), UniProt P03230); assay: TES1-eGFP NF-kB reporter inhibition versus Tet-On dsRED, dose response, selectivity assay for LMP1 NF-kB inhibitor project, imaging, HEK293T, dual-color eGFP/dsRED, cherry-picks (AID 588398); assay type: functional, cell-based
T1 sequence (P03230 whole entry): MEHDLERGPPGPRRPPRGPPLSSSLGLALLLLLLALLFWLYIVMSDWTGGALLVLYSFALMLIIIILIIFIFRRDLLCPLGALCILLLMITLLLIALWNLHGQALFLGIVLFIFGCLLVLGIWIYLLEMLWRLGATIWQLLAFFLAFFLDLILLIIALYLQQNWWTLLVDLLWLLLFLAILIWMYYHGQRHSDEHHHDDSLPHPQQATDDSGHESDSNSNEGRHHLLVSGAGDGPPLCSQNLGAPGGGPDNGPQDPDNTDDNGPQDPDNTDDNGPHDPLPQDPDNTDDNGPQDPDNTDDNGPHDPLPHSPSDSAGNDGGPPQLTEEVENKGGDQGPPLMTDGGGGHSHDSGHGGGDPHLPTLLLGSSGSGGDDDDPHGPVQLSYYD

Caspase-3 = biological target: T2, Caspase-3 (Homo sapiens, UniProt P42574); assay type: functional;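 further: Dose-response selectivity test against caspase-3 for candidate inhibitors of sentrin-specific proteases (SENPs)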
T2 sequence (P42574 whole entry): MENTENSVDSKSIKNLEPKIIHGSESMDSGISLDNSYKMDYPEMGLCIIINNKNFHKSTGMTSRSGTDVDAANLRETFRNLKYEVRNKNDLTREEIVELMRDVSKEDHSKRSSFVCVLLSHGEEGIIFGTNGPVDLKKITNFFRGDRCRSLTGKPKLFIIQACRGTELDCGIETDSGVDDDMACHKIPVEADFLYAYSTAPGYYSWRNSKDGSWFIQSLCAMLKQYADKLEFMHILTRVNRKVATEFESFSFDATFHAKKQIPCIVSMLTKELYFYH

[4] = biological target: T3, Sentrin-specific protease 7 (Homo sapiens, UniProt Q9BQF6); assay type: functional;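 further: Luminescence-based dose-response confirmation of ultra-high-throughput screening hits, measuring inhibition of SENP7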
T3 sequence (Q9BQF6 whole entry): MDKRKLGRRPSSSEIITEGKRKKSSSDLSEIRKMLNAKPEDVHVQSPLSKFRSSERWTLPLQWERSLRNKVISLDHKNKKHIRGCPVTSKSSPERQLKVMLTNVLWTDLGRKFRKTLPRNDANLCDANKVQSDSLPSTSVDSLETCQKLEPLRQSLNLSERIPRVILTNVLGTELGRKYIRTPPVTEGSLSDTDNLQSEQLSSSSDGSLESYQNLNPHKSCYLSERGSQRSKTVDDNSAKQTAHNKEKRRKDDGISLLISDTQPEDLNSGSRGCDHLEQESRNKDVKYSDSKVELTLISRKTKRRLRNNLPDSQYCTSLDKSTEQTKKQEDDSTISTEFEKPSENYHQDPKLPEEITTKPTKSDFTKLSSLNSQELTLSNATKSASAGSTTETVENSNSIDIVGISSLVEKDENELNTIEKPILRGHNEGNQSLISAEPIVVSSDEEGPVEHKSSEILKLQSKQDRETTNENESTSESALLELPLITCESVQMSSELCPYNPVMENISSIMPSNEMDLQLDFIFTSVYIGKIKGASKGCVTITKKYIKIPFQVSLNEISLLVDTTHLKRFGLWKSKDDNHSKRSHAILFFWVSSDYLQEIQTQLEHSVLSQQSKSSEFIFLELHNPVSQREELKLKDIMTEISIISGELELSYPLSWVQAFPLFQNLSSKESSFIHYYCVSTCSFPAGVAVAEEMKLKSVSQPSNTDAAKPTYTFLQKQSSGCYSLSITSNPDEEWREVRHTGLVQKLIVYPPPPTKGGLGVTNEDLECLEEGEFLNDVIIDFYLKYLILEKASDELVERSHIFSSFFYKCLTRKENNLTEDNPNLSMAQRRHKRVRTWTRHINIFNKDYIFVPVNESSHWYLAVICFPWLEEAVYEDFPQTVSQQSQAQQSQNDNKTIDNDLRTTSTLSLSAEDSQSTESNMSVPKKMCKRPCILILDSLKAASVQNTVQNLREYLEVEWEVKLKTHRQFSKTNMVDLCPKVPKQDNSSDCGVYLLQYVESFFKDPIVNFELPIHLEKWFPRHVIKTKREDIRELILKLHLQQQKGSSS

[5] = biological target: T4, Sentrin-specific protease 6 (Homo sapiens, UniProt Q9GZR1); assay type: functional;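 further: Luminescence-based dose-response confirmatory assay of SENP6 inhibition, following up an ultra-high-throughput screen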
T4 sequence (Q9GZR1 whole entry): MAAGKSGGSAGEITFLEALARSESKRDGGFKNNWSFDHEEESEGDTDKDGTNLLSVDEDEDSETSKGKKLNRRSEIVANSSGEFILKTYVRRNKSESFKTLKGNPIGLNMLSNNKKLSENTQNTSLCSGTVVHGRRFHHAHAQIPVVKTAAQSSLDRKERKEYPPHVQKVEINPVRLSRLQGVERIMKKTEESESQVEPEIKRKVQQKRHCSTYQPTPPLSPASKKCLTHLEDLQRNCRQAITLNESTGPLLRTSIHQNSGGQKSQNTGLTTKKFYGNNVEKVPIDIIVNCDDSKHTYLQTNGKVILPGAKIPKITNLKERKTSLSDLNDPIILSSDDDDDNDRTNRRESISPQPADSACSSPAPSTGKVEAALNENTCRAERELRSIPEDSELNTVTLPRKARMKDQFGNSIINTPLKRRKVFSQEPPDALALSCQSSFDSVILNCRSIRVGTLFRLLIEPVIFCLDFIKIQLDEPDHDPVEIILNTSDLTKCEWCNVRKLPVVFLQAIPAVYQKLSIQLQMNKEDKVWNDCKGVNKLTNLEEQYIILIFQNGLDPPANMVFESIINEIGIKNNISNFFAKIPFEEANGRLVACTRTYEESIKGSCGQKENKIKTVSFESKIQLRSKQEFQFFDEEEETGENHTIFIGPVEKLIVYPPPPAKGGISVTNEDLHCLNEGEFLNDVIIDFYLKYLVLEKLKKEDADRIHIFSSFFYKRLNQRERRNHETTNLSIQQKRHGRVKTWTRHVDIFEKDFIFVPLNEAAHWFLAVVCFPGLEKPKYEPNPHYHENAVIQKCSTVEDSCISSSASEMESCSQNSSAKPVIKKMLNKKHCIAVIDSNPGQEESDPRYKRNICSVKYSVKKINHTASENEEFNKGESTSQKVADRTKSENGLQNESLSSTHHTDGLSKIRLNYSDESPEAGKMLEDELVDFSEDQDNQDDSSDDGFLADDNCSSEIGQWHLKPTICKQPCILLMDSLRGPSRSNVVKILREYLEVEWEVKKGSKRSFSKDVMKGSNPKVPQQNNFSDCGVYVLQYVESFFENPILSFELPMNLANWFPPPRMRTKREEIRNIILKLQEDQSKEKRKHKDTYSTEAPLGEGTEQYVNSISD

[6] = biological target: T5, Sentrin-specific protease 8 (Homo sapiens, UniProt Q96LD8); assay type: functional;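 further: luminescence read-out of SENP8 inhibition, dose-response confirmation following an ultra-high-throughput screen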
T5 sequence (Q96LD8 whole entry): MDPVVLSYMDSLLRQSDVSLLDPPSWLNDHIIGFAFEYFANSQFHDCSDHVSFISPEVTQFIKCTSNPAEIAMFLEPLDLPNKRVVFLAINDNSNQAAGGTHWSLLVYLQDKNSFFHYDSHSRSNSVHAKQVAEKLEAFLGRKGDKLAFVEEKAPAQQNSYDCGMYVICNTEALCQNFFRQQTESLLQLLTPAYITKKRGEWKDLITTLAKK

HeLa = assay: HeLa cell cytotoxicity, dose response, cytotoxicity control for MITF activator project, CellTiter-Glo luminescence, cherry-pick samples (AID 540259); assay type: functional, cell-based; details: Homo sapiens
[7] = inhibitors of intracellular T. cruzi replication, confirmation, NIH3T3 host cells, beta-gal luminescence (AID 2044); assay type: functional, cell-based;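 further: intracellular parasites grown in NIH/3T3 mouse fibroblasts as host cells; luminescent beta-galactosidase reporter signal from transgenic T. cruzi replicating inside host cells; inhibitors lower the luminescence signal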
[8] = cytotoxicity toward NIH3T3 fibroblasts, dose response, counter-screen, cell-based, ATP luminescence, mouse fibroblasts (AID 2010); assay type: functional;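 further: cells exposed to compound for about 90 hours before reading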
INS1 = assay: beta cell apoptosis inhibitors, cytokine rescue, dose response, luminescence, retest (AID 449756); assay type: functional, cell-based; details: Rattus norvegicus;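 further: cell death triggered by IL-1 beta plus TNF-alpha plus IFN-gamma mixture; protective hits raise ATP signal compared with cytokine alone wells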
Protein Wnt-3a = Protein Wnt-3a (Mus musculus, UniProt P27467); assay: Wnt3a-driven reporter signaling inhibition, dose response, selectivity assay for Gli-SUFU antagonist project, Wnt-LIGHT cells, luminescence (AID 651570); assay type: functional; details: read-out: IC50_Mean;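 further: Wnt-LIGHT reporter cells stimulated with conditioned medium from Wnt3a-producing cells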
Sequence of Protein Wnt-3a (P27467 whole entry): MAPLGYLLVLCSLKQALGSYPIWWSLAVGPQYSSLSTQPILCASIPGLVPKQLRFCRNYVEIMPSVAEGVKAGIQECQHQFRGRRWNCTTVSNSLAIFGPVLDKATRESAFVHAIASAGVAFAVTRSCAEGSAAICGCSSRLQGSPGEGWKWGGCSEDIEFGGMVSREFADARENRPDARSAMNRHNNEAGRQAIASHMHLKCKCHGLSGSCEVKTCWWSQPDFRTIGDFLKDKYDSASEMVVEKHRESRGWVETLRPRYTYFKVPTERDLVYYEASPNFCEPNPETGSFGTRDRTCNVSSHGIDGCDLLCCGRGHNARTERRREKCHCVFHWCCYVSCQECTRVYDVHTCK

Vero [9] = assay: Vero cell cytotoxicity, cytotoxicity control for flavivirus capping enzyme inhibitors (AID 588742); assay type: functional; details: Chlorocebus sabaeus
Genome polyprotein = Genome polyprotein (dengue virus type 2, UniProt P29990); assay: Dengue-2 NS5 methyltransferase inhibitors, primary screen, biochemical, confirmation dose response (AID 588689); assay type: functional
Sequence of Genome polyprotein (P29990 2492-3391 limits assumed): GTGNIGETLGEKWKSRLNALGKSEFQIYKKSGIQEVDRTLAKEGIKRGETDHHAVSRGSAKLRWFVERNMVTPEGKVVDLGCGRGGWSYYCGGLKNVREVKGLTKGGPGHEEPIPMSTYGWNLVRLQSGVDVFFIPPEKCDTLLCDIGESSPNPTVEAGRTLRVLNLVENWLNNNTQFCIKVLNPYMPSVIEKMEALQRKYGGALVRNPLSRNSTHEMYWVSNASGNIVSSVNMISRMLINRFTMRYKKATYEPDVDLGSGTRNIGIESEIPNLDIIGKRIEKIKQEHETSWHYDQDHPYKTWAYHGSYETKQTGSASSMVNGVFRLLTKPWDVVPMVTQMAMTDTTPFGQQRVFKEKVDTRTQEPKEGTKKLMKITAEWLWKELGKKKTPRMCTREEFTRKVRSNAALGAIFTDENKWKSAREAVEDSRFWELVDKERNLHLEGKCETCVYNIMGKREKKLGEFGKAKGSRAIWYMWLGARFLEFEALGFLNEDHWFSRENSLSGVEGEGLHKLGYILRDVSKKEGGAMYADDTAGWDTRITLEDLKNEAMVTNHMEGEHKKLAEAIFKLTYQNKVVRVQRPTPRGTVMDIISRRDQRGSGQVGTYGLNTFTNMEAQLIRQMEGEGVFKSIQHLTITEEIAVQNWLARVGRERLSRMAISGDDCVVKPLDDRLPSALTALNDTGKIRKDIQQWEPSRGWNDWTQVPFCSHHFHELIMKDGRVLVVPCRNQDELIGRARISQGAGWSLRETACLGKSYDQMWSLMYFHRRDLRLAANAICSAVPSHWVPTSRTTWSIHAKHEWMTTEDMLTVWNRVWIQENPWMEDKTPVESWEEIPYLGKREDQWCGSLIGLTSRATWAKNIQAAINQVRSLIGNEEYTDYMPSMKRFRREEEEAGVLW

Compound: O=C(Nc1cc(C(F)(F)F)cc(C(F)(F)F)c1)Nc1cnn(-c2ccc([N+](=O)[O-])cc2)c1C(F)(F)F
- CC50 (Vero [1]): 2.94 µM (active)
- AC50 [2]: 442 nM (active)
- AC50 (HEK293): 1.12 µM (active)
- AC50 [3]: 3.91 µM (active)

Compound: CC(C)NC(=O)c1ccc2c3n(nc2c1)-c1ccc(Cl)cc1CO3
- IC50 (Caspase-3): 24 µM (active)
- IC50 [4]: 18.4 µM (active)
- IC50 [5]: 81.8 µM (active)
- IC50 [6]: 69.3 µM (active)
- AC50 (HeLa): 50.7 µM (active)

Compound: Cc1ccc2c(c1)S/C(=C/c1ccc[n+](C)c1)N2CCO
- EC50 [7]: 1.16 µM (active)
- EC50 [8]: > 60 µM (not active)
- AC50 (INS1): 3.77 µM (active)
- IC50 (Protein Wnt-3a): 26.7 µM (inactive)

Compound: O=C(c1ccccc1)c1ccc(O)c(O)c1O
- CC50 (Vero [9]): > 40 µM (active)
- IC50 (Genome polyprotein): 57.7 µM (active)

Compound: Nc1ccc(Br)cc1-c1nc2ccccc2[nH]c1=O
- IC50 (Protein Wnt-3a): 0.449 µM (active)

Source: ChEMBL document CHEMBL1201862, “PubChem BioAssay data set” (2004)
